molecular target: Dihydroorotate dehydrogenase (quinone), mitochondrial (Homo sapiens, UniProt Q02127); test: Inhibition of human dihydroorotate dehydrogenase
Sequence (Q02127 whole entry): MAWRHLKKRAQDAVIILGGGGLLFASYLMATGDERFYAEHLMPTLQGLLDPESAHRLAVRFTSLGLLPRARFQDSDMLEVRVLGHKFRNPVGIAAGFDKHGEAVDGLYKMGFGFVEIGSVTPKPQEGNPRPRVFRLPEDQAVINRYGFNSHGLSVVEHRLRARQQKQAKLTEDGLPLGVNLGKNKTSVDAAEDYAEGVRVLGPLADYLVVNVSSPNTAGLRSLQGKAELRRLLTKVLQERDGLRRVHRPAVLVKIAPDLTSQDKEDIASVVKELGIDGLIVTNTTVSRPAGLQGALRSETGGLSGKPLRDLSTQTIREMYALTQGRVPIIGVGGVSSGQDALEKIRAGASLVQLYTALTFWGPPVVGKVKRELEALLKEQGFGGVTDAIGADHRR

IC50 | Compound
150 nM | CCC(=O)C(C#N)C(=O)Nc1ccc(OS(=O)(=O)C(F)(F)F)cc1 (configuration not stated)
31 nM | CCC(=O)C(C#N)C(=O)Nc1ccc(-c2cccc(Cl)c2)c(C(=O)OC)c1 (configuration not stated)
31 nM | CCC(=O)C(C#N)C(=O)Nc1ccc(-c2ccc(F)cc2F)c(C(=O)OC)c1 (configuration not stated)
150 nM | CCC(=O)C(C#N)C(=O)Nc1ccc(-c2ccc(F)nc2)c(C(=O)OC)c1 (configuration not stated)
66 nM | CCC(=O)C(C#N)C(=O)Nc1ccc(-c2ccc(F)cc2OC)c(C(=O)OC)c1 (configuration not stated)
66 nM | CCC(=O)C(C#N)C(=O)Nc1ccc(-c2ccc3c(c2)OCCO3)c(C(=O)OC)c1 (configuration not stated)
31 nM | CCC(=O)C(C#N)C(=O)Nc1ccc(-c2cccc(OC3CCC3)c2)c(C(=O)OC)c1 (configuration not stated)

Reference: BindingDB's records for doi:10.1016/j.bmcl.2011.10.052 (Rhône-Poulenc Rorer, 2011)
